Article PMC5547389, “Structure-activity relationships and molecular docking studies of chromene and chromene based azo chromophores: A novel series of potent antimicrobial and anticancer agents” (EXCLI Journal, 2017)
Converted amounts (≈) assume the structure as drawn.

Key:
[1] = test system: primary mixed neuronal in vitro culture; assay: Acute toxicity, LDH release; assay type: cell-based, rat
Protocol: In vitro experiments were carried out at the University of Prince Edward Island and approved by the Animal Care and Biosafety Committees, which adheres to the guidelines of the Canadian Council on Animal Care (protocol #14-041 and 15-028). Mixed neocortical cultures, containing both neurons and glia, were prepared from fetal rats at 17-18 days gestation. Briefly, embryonic tissue was extracted from untimed pregnant Sprague-Dawley rats by caesarean section and transferred to ice-cold Hanks Balanced Salt Solution (Gibco). Cortical brain tissue was carefully isolated by fine dissection using aseptic techniques. Cortices were minced in cold HBSS using a sterile razor blade prior to digestion with 0.0125 % trypsin. Dissociated cells were plated in poly-L-lysine (1 mg/ml, Sigma Aldrich) coated 96 well plates at a seeding density of 50000 cells/well in warm (37 °C) Dulbecco's Modified Eagle Medium (Gibco) containing 10 % iron-supplemented bovine calf serum (Hyclone) and 1 % antibiotic/antimycotic (Gibco). Cultures were allowed to adhere overnight in a humidified 37 °C incubator having 5 % CO2 and atmospheric oxygen. The following day, the media was replaced with warmed Neurobasal A Medium (Gibco) containing 0.5 mM L-glutamine (Gibco) and supplemented with 1 % B27, N2 and antibiotic/antimycotic (Gibco). Half-volume media changes were made every 4 days thereafter with experiments being carried out on 14-16 day old cultures. After 14 days in culture, the medium was replaced with deoxygenated unsupplemented glucose-free Neurobasal A containing either 10 or 100 µM of the novel compounds T3, T4, T5, T8, T9, T11, or T12. Control wells contained glucose-free medium plus vehicle - either 0.1 % ethanol or 0.1 % DMSO. Cultures were transferred to a humidified 37 °C incubator having 5 % CO2, 1.1 % O2 and the balance N2 for a period of 24 hours. Following OGD, an equal volume of normal supplemented Neurobasal A containing identical drug concentrations was added and cultures were transferred to normoxic conditions (5 % CO2 and atmospheric oxygen) for an additional 24 h. Cell viability was assessed by measuring LDH release from damaged cells. Control cultures were prepared in separate plates having supplemented Neurobasal A and being maintained in 5 % CO2 and atmospheric oxygen for the duration of the experiment. Toxicity was assessed in wells treated with 10 µM of each of the test compounds listed above. After 24 h an equal volume of culture media as added to each well to account for handling effects on experimental outcomes. Toxicity was assessed after an additional 24 h in culture by measuring LDH release from treated cells. At the end of each experiment, cell injury was assessed by measuring lactate dehydrogenase (LDH) released from damaged cells into the culture medium (Cytoscan LDH Assay, G Biosciences). LDH measurements represent the average of 7 replicate treatments/dose. The effect of OGD and drug treatments on LDH was expressed as a percent of LDH release compared to OGD and vehicle groups. […]
Lactate dehydrogenase (LDH) release in the medium is an enzymatic indicator that illustrates the loss of membrane integrity, apoptosis, or necrosis of a cell. Using a primary mixed neuronal in vitro culture, the cytotoxic effect of the chromene-based compounds (4a, 4c, 7c, 12c, 12k, 13g, and 13h) was assessed by lactate dehydrogenase (LDH) release from cells pretreated with different concentrations after 24 and 48 h of incubation (Figure 9A-C(Fig. 9)). […]

HCT-116, MCF-7, HEPG-2 = assay: Cytotoxic screening, statements over the three cell lines; assay type: cell-based; conditions: Homo sapiens; HCT-116, MCF-7, HEPG-2 together; read-out: IC50, range over the three cell lines
Protocol: Human colon carcinoma (HCT-116), human hepatocellular carcinoma (HEPG-2), adenocarcinomic human alveolar basal epithelial cell (A-549), and human breast adenocarcinoma (MCF-7) cell lines were obtained from the American Type Culture Collection (ATCC, Rockville, MD). The cells were grown on RPMI-1640 medium supplemented with 10 % inactivated fetal calf serum and 50 µg/ml gentamycin. The cells were maintained at 37 °C in a humidified atmosphere with 5 % CO2 and were subcultured two to three times a week. Potential cytotoxicity of the compounds was evaluated on tumor cells using the method of Gangadevi and Muthumary (2007[21]) (Klancnik et al., 2010[36]). The cells were grown as monolayers in growth RPMI-1640. The monolayers of 104 cells adhered at the bottom of the wells in a 96-well microtiter plate incubated for 24 h at 37 °C in a humidified incubator with 5 % CO2. The monolayers were then washed with sterile phosphate buffered saline (0.01 M pH 7.2) and simultaneously the cells were treated with 100 µL from different dilutions of tested sample in fresh maintenance medium and incubated at 37 °C. A control of untreated cells was made in the absence of tested sample. Positive controls containing doxorubicin were also tested as a reference drug for comparison. Six wells were used for each concentration of the test sample. Every 24 hours an observation under the inverted microscope was made. The number of the surviving cells was determined by staining the cells with crystal violet (Mosmann, 1983[42]; Gangadevi and Muthumary, 2007[21]) followed by cell lysing using 33 % glacial acetic acid and reading the absorbance at 590 nm using microplate reader (SunRise, TECAN, Inc, USA) after well mixing. The absorbance values from untreated cells were considered as 100 % proliferation. The number of viable cells was determined using microplate reader as previously mentioned before and the percentage of […] was calculated as [1-(ODt/ODc)] x 100 % where ODt is the mean optical density of wells treated with the tested sample and ODc is the mean optical density of untreated cells. The relation between surviving cells and drug concentration was plotted to get the survival curve of each tumor cell line after treatment with the specified compound. The 50 % inhibitory concentration (IC50), the concentration required to cause toxic effects in 50 % of intact cells, was estimated from graphic plots.
The in vitro cytotoxic activity was performed by MTT assay (Mosmann, 1983[42]; Alley et al., 1988[6]) against three human carcinoma cell lines: Human colon carcinoma (HCT-116), human breast adenocarcinoma (MCF-7), and human hepatocellular carcinoma (HEPG-2).

**Q.** With `N#CC1=C(N)Oc2c(ccc3c(N)cccc23)C1c1ccc(F)cc1` (stereo not shown) [7c] as the compound, how does the “LDH release more than vehicle” value ([1]; 10 µM, 24 hrs of incubation) read?
**A.** 2-3 folds

**Q.** And the “LDH release” value ([1]; 100 µM, 24 hrs)?
**A.** more LDH release compared to the vehicle

**Q.** What about the IC50 (HCT-116, MCF-7, HEPG-2) of the same compound?
**A.** 0.3 to 2 µg/mL (≈ 0.905 to 6.04 µM)

**Q.** For `N#CC1=C(N)Oc2c(N)cc3ccccc3c2C1c1ccc(F)cc1` (stereo not shown) [4a, 3,5-diamino-1-(4-fluorophenyl)-1H-benzo[f]chromene-2-carbonitrile], which “LDH release more than vehicle” value ([1]; 10 µM, 24 hrs of incubation) is on record?
**A.** 2-3 folds

**Q.** What about the IC50 (HCT-116, MCF-7, HEPG-2) of the same compound?
**A.** 0.3 to 2 µg/mL (≈ 0.905 to 6.04 µM)

**Q.** With `COc1ccc(N=Nc2cc3c(cc2O)OC(N)=C(C#N)C3c2ccc(F)cc2)cc1` (stereo not shown) [13b, 2-Amino-4-(4-fluoro-phenyl)-7-hydroxy-6-(4-methoxy-phenylazo)-4H-chromene-3-carbonitrile] as the compound, how does the IC50 (HCT-116, MCF-7, HEPG-2) read?
**A.** 2.41 to 5.4 µg/mL (≈ 5.79 to 13 µM)

**Q.** With `N#CC1=C(N)Oc2c(N)cc3ccccc3c2C1c1ccc(Cl)cc1` (stereo not shown) [4b, 3,5-diamino-1-(4-chlorophenyl)-1H-benzo[f]chromene-2-carbonitrile] as the compound, how does the IC50 (HCT-116, MCF-7, HEPG-2) read?
**A.** 0.3 to 2 µg/mL (≈ 0.863 to 5.75 µM)

**Q.** Which “LDH release” value ([1]; 10 µM, 24 hrs of incubation) does the source give for `Cc1ccc(C2C(C#N)=C(N)Oc3c(N)cc4ccccc4c32)cc1` (stereo not shown) [4c, 3,5-diamino-1-(p-tolyl)-1H-benzo[f]chromene-2-carbonitrile] here?
**A.** reduced the LDH release

**Q.** What about the “LDH release” value ([1]; 100 µM, 24 hrs) of the same compound?
**A.** ineffective

**Q.** And the IC50 (HCT-116, MCF-7, HEPG-2)?
**A.** 0.3 to 2 µg/mL (≈ 0.916 to 6.11 µM)
